Laboratory results from ChEMBL document CHEMBL1201862, “PubChem BioAssay data set” (2004).
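Five concentrations, 48 hours, 96-well plates. GI50 is the concentration that inhibits growth by half.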 The source made the active and inactive calls. Cut-off read from the data, not from the text of the source: active = GI50 up to about 1.1 µM and inactive = higher.

Columns and labels:
Assay in all cases: NCI-60 cell line screen, 48 h
UACC-257 = test system: UACC-257
UACC-62 = test system: UACC-62
KM12 = test system: KM12
SF-539 = test system: SF-539
K562 = test system: K562
A498 = test system: A498
Hs-578T = test system: Hs-578T
HCT-15 = test system: HCT-15
OVCAR-3 = test system: OVCAR-3
SF-295 = test system: SF-295
SNB-19 = test system: SNB-19
MCF7 = test system: MCF7
SF-268 = test system: SF-268
DU-145 = test system: DU-145
SR = test system: SR
PC-3 = test system: PC-3
CAKI-1 = test system: CAKI-1
HOP-62 = test system: HOP-62
RXF 393 = test system: RXF 393
HCT-116 = test system: HCT-116
NCI-H460 = test system: NCI-H460
HCC 2998 = test system: HCC 2998
SK-MEL-2 = test system: SK-MEL-2
SK-OV-3 = test system: SK-OV-3
U-251 = test system: U-251
NCI-H23 = test system: NCI-H23
BT-549 = test system: BT-549
M14 = test system: M14
OVCAR-8 = test system: OVCAR-8
MDA-MB-435 = test system: MDA-MB-435
OVCAR-5 = test system: OVCAR-5
TK-10 = test system: TK-10
RPMI-8226 = test system: RPMI-8226
HOP-92 = test system: HOP-92
NCI/ADR-RES = test system: NCI/ADR-RES
LOX IMVI = test system: LOX IMVI
SW-620 = test system: SW-620
SK-MEL-5 = test system: SK-MEL-5
786-0 = test system: 786-0
UO-31 = test system: UO-31
COLO 205 = test system: COLO 205
IGROV-1 = test system: IGROV-1
NCI-H226 = test system: NCI-H226
ACHN = test system: ACHN
T47D = test system: T47D
Malme-3M = test system: Malme-3M
HL-60 = test system: HL-60
SNB-75 = test system: SNB-75
HT-29 = test system: HT-29
NCI-H522 = test system: NCI-H522
MOLT-4 = test system: MOLT-4
A549 = test system: A549
EKVX = test system: EKVX
SK-MEL-28 = test system: SK-MEL-28
SN12C = test system: SN12C
CCRF-CEM = test system: CCRF-CEM
MDA-MB-231 = test system: MDA-MB-231
OVCAR-4 = test system: OVCAR-4
MDA-N = test system: MDA-N

Measured: GI50

Cc1cn(S(=O)(=O)c2ccccc2)c2c(OCc3ccccc3)cc([N+](=O)[O-])cc12
active: SR < 0.01 µM
> 100 µM: HCT-15
inactive: UACC-257 > 100 µM | UACC-62 21.3 µM | KM12 > 100 µM | SF-539 > 100 µM | K562 > 100 µM | A498 30.6 µM | Hs-578T 26 µM | OVCAR-3 > 100 µM | SF-295 27.9 µM | SNB-19 56.4 µM | MCF7 32.4 µM | SF-268 > 100 µM | DU-145 > 100 µM | PC-3 32.9 µM | CAKI-1 > 100 µM | HOP-62 > 10 µM | RXF 393 25.1 µM | HCT-116 > 100 µM | NCI-H460 > 100 µM | HCC 2998 > 100 µM | SK-MEL-2 62.4 µM | SK-OV-3 50.8 µM | U-251 31 µM | NCI-H23 96.8 µM | BT-549 > 100 µM | M14 > 100 µM | OVCAR-8 > 100 µM | MDA-MB-435 3.92 µM | OVCAR-5 > 100 µM | TK-10 > 100 µM | RPMI-8226 > 100 µM | HOP-92 74 µM | NCI/ADR-RES > 100 µM | LOX IMVI > 100 µM | SW-620 63 µM | SK-MEL-5 6.17 µM | 786-0 27.1 µM | UO-31 69.3 µM | COLO 205 > 100 µM | IGROV-1 71 µM | NCI-H226 58.7 µM | ACHN 61.7 µM | T47D 29.2 µM | Malme-3M 17.5 µM | HL-60 > 100 µM | SNB-75 25.3 µM | HT-29 > 100 µM | NCI-H522 70.5 µM | MOLT-4 > 100 µM | A549 41.5 µM | EKVX 35.7 µM | SK-MEL-28 79.8 µM | SN12C 57.7 µM | CCRF-CEM > 100 µM | MDA-MB-231 80.9 µM | OVCAR-4 86.3 µM

CCCC/N=C(/c1ccccc1)N1CCOCC1
inactive: UACC-257 > 100 µM | UACC-62 > 100 µM | KM12 > 100 µM | SF-539 > 100 µM | K562 > 100 µM | A498 > 100 µM | Hs-578T 87.1 µM | OVCAR-3 > 100 µM | SF-295 > 100 µM | SNB-19 > 100 µM | MCF7 > 100 µM | SF-268 > 100 µM | DU-145 > 100 µM | SR > 100 µM | PC-3 > 100 µM | CAKI-1 > 100 µM | HOP-62 > 100 µM | RXF 393 > 100 µM | HCT-116 > 100 µM | NCI-H460 > 100 µM | SK-MEL-2 > 100 µM | SK-OV-3 > 100 µM | U-251 > 100 µM | NCI-H23 > 100 µM | BT-549 > 100 µM | M14 > 100 µM | OVCAR-8 > 100 µM | MDA-MB-435 > 100 µM | OVCAR-5 > 100 µM | TK-10 > 100 µM | RPMI-8226 > 100 µM | NCI/ADR-RES > 100 µM | LOX IMVI > 100 µM | SW-620 > 100 µM | SK-MEL-5 > 100 µM | 786-0 > 100 µM | UO-31 97.7 µM | COLO 205 > 100 µM | MDA-N > 100 µM | IGROV-1 > 100 µM | NCI-H226 > 100 µM | ACHN > 100 µM | Malme-3M 57.9 µM | HL-60 > 100 µM | SNB-75 1.25 µM | HT-29 > 100 µM | MOLT-4 > 100 µM | EKVX > 100 µM | SK-MEL-28 > 100 µM | SN12C > 100 µM | CCRF-CEM > 100 µM | MDA-MB-231 > 100 µM
> 100 µM: HCT-15

Cc1cc(-c2nc3ccc(F)cc3s2)ccc1N
> 100 µM: HCT-15
inactive: UACC-257 > 100 µM | UACC-62 89.1 µM | KM12 > 100 µM | SF-539 43.5 µM | K562 > 100 µM | A498 2.55 µM | Hs-578T 37.2 µM | OVCAR-3 > 100 µM | SF-295 > 100 µM | SNB-19 > 100 µM | SF-268 > 100 µM | DU-145 > 100 µM | SR > 100 µM | PC-3 63.5 µM | CAKI-1 > 100 µM | HOP-62 > 100 µM | RXF 393 49.8 µM | HCT-116 > 100 µM | HCC 2998 38.9 µM | SK-MEL-2 > 100 µM | U-251 > 100 µM | NCI-H23 > 100 µM | BT-549 > 100 µM | M14 > 100 µM | OVCAR-8 > 100 µM | MDA-MB-435 > 100 µM | OVCAR-5 > 100 µM | RPMI-8226 5.6 µM | HOP-92 > 100 µM | NCI/ADR-RES > 100 µM | LOX IMVI > 100 µM | SW-620 > 100 µM | SK-MEL-5 41.4 µM | 786-0 > 100 µM | UO-31 > 100 µM | COLO 205 > 100 µM | MDA-N > 100 µM | IGROV-1 1.28 µM | NCI-H226 59.8 µM | ACHN 68.2 µM | Malme-3M > 100 µM | SNB-75 > 100 µM | HT-29 > 100 µM | NCI-H522 21.5 µM | MOLT-4 > 100 µM | A549 42.5 µM | EKVX 56.5 µM | SK-MEL-28 > 100 µM | SN12C > 100 µM | CCRF-CEM 9.46 µM | MDA-MB-231 > 100 µM
active: MCF7 < 0.01 µM | TK-10 < 0.01 µM
